Patent publication US20160039904A1, “STABILIZED SINGLE HUMAN CD4 DOMAINS AND FUSION PROTEINS” (priority 2013, published 2016)
“And” between values parts separate entries of the source, which are not always exact repeats. Identical values can stand only once. Like-named read-outs stand apart in the source and are kept apart here.

Key:
Assay type in all cases: cell-based
HIV-1 CH64 = conditions: Table 7; CH64, clade BC, R5
HIV-1 CH70 = conditions: Table 7; CH70, clade BC, R5
HIV-1 CH91 = conditions: Table 7; CH91, clade BC, R5
HIV-1 CH117 = conditions: Table 7; CH117, clade BC, R5
HIV-1 CNE7 = conditions: Table 7; CNE7, clade BC, R5
HIV-1 CNE15 = conditions: Table 7; CNE15, clade BC, R5
HIV-1 CNE20 = conditions: Table 7; CNE20, clade BC, R5
HIV-1 CNE23 = conditions: Table 7; CNE23, clade BC, R5
HIV-1 CNE30 = conditions: Table 7; CNE30, clade BC, R5
HIV-1 CNE40 = conditions: Table 7; CNE40, clade BC, R5
HIV-1 CNE47 = conditions: Table 7; CNE47, clade BC, R5
HIV-1 CNE49 = conditions: Table 7; CNE49, clade BC, R5
HIV-1 CNE53 = conditions: Table 7; CNE53, clade BC, R5
HIV-1 CNE68 = conditions: Table 7; CNE68, clade BC, R5
HIV-1 CNE1 = conditions: Table 7; CNE1, clade B′, X4
HIV-1 CNE6 = conditions: Table 7; CNE6, clade B′, R5
HIV-1 CNE11 = conditions: Table 7; CNE11, clade B′, R5
HIV-1 CNE14 = conditions: Table 7; CNE14, clade B′, R5
HIV-1 CNE57 = conditions: Table 7; CNE57, clade B′, X4
HIV-1 CNE17 = conditions: Table 7; CNE17, clade C, R5
HIV-1 CNE58 = conditions: Table 7; CNE58, clade C, R5
HIV-1 CNE65 = conditions: Table 7; CNE65, clade C, R5
HIV-1 CNE66 = conditions: Table 7; CNE66, clade C, R5
HIV-1 CNE3 = conditions: Table 7; CNE3, clade AE, R5
HIV-1 CNE5 = conditions: Table 7; CNE5, clade AE, R5
HIV-1 CNE59 = conditions: Table 7; CNE59, clade AE, R5
HIV-1 CNE107 = conditions: Table 7; CNE107, clade AE, X4
HIV-1 AE20 = conditions: Table 7; AE20, clade AE, R5
HIV-1 AE03 = conditions: Table 7; AE03, clade AE, R5
HIV-1 YN192.31 = conditions: Table 7; YN192.31, clade AE, R5
HIV-1 GX2010.36 = conditions: Table 7; GX2010.36, clade AE, R5
[1] = test system: 41 HIV-1 isolates predominantly circulating in China; conditions: for IC50 / IC90: Table 7, all viruses, >750 assigned 800, >250 assigned 300, >100 assigned 150, >28 assigned 30
[2] = read-out: IC50, arithmetic mean
[3] = read-out: IC90, arithmetic mean

Work on enfuvirtide yielded an IC50 (HIV-1 CH64) of 3.1 nM, an IC90 (HIV-1 CH64) of 25 nM and an IC50 (HIV-1 CH70) of 65 nM. It also gave an IC90 (HIV-1 CH70) greater than 750 nM, an IC50 (HIV-1 CH91) of 8.6 nM and an IC90 (HIV-1 CH91) of 310 nM. For the same substance, the IC50 (HIV-1 CH117) was 2.3 nM, the IC90 (HIV-1 CH117) was 34 nM and the IC50 (HIV-1 CNE7) was 4.3 nM. It also gave an IC90 (HIV-1 CNE7) of 58 nM, an IC50 (HIV-1 CNE15) of 14 nM and an IC90 (HIV-1 CNE15) of 157 nM. For the same substance, the IC50 (HIV-1 CNE20) was 5.5 nM, the IC90 (HIV-1 CNE20) was 41 nM and the IC50 (HIV-1 CNE23) was 15 nM. It also gave an IC90 (HIV-1 CNE23) of 228 nM, an IC50 (HIV-1 CNE30) of 26 nM and an IC90 (HIV-1 CNE30) of 285 nM. For the same substance, the IC50 (HIV-1 CNE40) was 4.9 nM, the IC90 (HIV-1 CNE40) was 108 nM and the IC50 (HIV-1 CNE47) was 4.9 nM. It also gave an IC90 (HIV-1 CNE47) of 42 nM, an IC50 (HIV-1 CNE49) of 9.1 nM and an IC90 (HIV-1 CNE49) of 236 nM. For the same substance, the IC50 (HIV-1 CNE53) was 51 nM, the IC90 (HIV-1 CNE53) was 721 nM and the IC50 (HIV-1 CNE68) was 32 nM. For the same substance, the IC90 (HIV-1 CNE68) was 321 nM, the IC50 (HIV-1 CNE1) was 1.6 nM and the IC90 (HIV-1 CNE1) was 17 nM. For the same substance, the IC50 (HIV-1 CNE6) was 1.4 nM, the IC90 (HIV-1 CNE6) was 15 nM and the IC50 (HIV-1 CNE11) was 3.5 nM. For the same substance, the IC90 (HIV-1 CNE11) was 36 nM, the IC50 (HIV-1 CNE14) was 9.7 nM and the IC90 (HIV-1 CNE14) was 305 nM. The IC50 (HIV-1 CNE57) was 2.5 nM, the IC90 (HIV-1 CNE57) was 24 nM and the IC50 (HIV-1 CNE17) was 42 nM. It also gave an IC90 (HIV-1 CNE17) of 676 nM, an IC50 (HIV-1 CNE58) of 54 nM and an IC90 (HIV-1 CNE58) of 745 nM. It also gave an IC50 (HIV-1 CNE65) of 5.9 nM, an IC90 (HIV-1 CNE65) of 78 nM and an IC50 (HIV-1 CNE66) of 129 nM. The IC90 (HIV-1 CNE66) was 729 nM, the IC50 (HIV-1 CNE3) was 5.6 nM and the IC90 (HIV-1 CNE3) was 38 nM. It also gave an IC50 (HIV-1 CNE5) of 2.1 nM, an IC90 (HIV-1 CNE5) of 19 nM and an IC50 (HIV-1 CNE59) of 1.4 nM. For the same substance, the IC90 (HIV-1 CNE59) was 17 nM, the IC50 (HIV-1 CNE107) was 3.8 nM and the IC90 (HIV-1 CNE107) was 45 nM. It also gave an IC50 (HIV-1 AE20) of 212 nM, an IC90 (HIV-1 AE20) of 572 nM and an IC50 (HIV-1 AE03) of 304 nM. It also gave an IC90 (HIV-1 AE03) of 510 nM, an IC50 (HIV-1 YN192.31) of 42 nM and an IC90 (HIV-1 YN192.31) of 336 nM. For the same substance, the IC50 (HIV-1 GX2010.36) was 255 nM, the IC90 (HIV-1 GX2010.36) was greater than 750 nM and the IC50 [1, 2] was 37 nM. For the same substance, the IC50 ([1]; read-out: IC50, geometric mean) was 11 nM, the IC90 [1, 3] was 277 nM and the IC90 ([1]; read-out: IC90, geometric mean) was 123 nM.

“4Dm2m: bispecific multivalent fusion protein of mD1.22 and m36.4; two SEQ ID NO: 20 and two SEQ ID NO: 21 chains” gave an IC90 (HIV-1 CH64) of 1.6 nM, an IC50 (HIV-1 CH70) of 0.11 nM and an IC90 (HIV-1 CH70) of 1.2 nM. It also gave an IC50 (HIV-1 CH91) of 0.39 nM, an IC90 (HIV-1 CH91) of 10 nM and an IC50 (HIV-1 CH117) of 0.33 nM. The IC50 (HIV-1 CNE7) was 0.18 nM, the IC90 (HIV-1 CNE7) was 1.8 nM and the IC50 (HIV-1 CNE15) was 0.29 nM. For the same substance, the IC90 (HIV-1 CNE15) was 2.6 nM, the IC50 (HIV-1 CNE20) was 0.05 nM and the IC90 (HIV-1 CNE20) was 5.3 nM. It also gave an IC50 (HIV-1 CNE23) of 0.49 nM, an IC90 (HIV-1 CNE23) of 4.9 nM and an IC50 (HIV-1 CNE30) of 0.07 nM. It also gave an IC90 (HIV-1 CNE30) of 0.44 nM, an IC50 (HIV-1 CNE40) of 0.01 nM and an IC90 (HIV-1 CNE40) of 0.11 nM. The IC50 (HIV-1 CNE47) was 0.11 nM, the IC90 (HIV-1 CNE47) was 2.8 nM and the IC50 (HIV-1 CNE49) was 0.05 nM. The IC90 (HIV-1 CNE49) was 0.56 nM, the IC50 (HIV-1 CNE53) was 0.24 nM and the IC90 (HIV-1 CNE53) was 5.5 nM. It also gave an IC50 (HIV-1 CNE68) of 0.11 nM, an IC90 (HIV-1 CNE68) of 0.78 nM and an IC50 (HIV-1 CNE1) of 0.11 nM. The IC90 (HIV-1 CNE1) was 0.61 nM, the IC50 (HIV-1 CNE6) was 0.33 nM and the IC90 (HIV-1 CNE6) was 2.3 nM. The IC50 (HIV-1 CNE11) was 0.33 nM, the IC90 (HIV-1 CNE11) was 2.6 nM and the IC90 (HIV-1 CNE14) was 2.4 nM. It also gave an IC90 (HIV-1 CNE57) of 19 nM, an IC50 (HIV-1 CNE17) of 0.11 nM and an IC90 (HIV-1 CNE17) of 2.4 nM. The IC90 (HIV-1 CNE58) was greater than 28 nM, the IC50 (HIV-1 CNE65) was 0.28 nM and the IC90 (HIV-1 CNE65) was 3.3 nM. For the same substance, the IC90 (HIV-1 CNE66) was 7.7 nM, the IC50 (HIV-1 CNE3) was 0.39 nM and the IC90 (HIV-1 CNE3) was 2.8 nM. It also gave an IC50 (HIV-1 CNE5) of 0.67 nM, an IC90 (HIV-1 CNE5) of 8.7 nM and an IC90 (HIV-1 CNE59) of 2.7 nM. For the same substance, the IC50 (HIV-1 CNE107) was 0.52 nM, the IC50 (HIV-1 AE20) was 0.72 nM and the IC50 (HIV-1 AE03) was 0.67 nM. For the same substance, the IC50 (HIV-1 YN192.31) was 0.89 nM, the IC50 (HIV-1 GX2010.36) was 0.11 nM and the “IC50 geometric mean lower than that of C34” value ([1]; 41 isolates, P<0.001) was roughly 16 fold. The “IC50 geometric mean lower than that of CD4-Ig” value ([1]; 41 isolates, P<0.001) was roughly 200 fold, the “IC50 geometric mean lower than that of T20” value ([1]; 41 isolates, P=0.002) was “about 50 fold” and the IC50 [1, 2] was 0.34 nM. For the same substance, the IC50 ([1]; read-out: IC50, geometric mean) was ~0.2 nM and 0.22 nM, the IC90 [1, 3] was 6.2 nM and the IC90 ([1]; read-out: IC90, geometric mean) was 3.5 nM.
